The record followed here is patent publication US9125879B2, “Composition containing a quinoa extract for dermatological use” (LABORATOIRES EXPANSCIENCE, priority 2006, dated 2015).

Type in all cases: cell-based
For experiment [1], the system named is keratinocytes. In words: Proliferation of keratinocytes by the MTT method. The procedure: c. Study of the Proliferation of Keratinocytes by the MTT Method
On D0, the keratinocytes are sown in a KGM2 medium day1, the cells are treated with trans-retinoic acid (ATRA) at 1 μM or quinoa peptides with 0.05% and 0.1% DM for 24 and 48 hours. At the end of the treatment, cell viability is quantified by an MTT test: after 3 hours of contact with MTT, the formed formazan crystals are solubilized by DMSO and the optical density, proportional to the amount of metabolically active cells therefore live cells, is read at 570 nm against the blank (wells without any cells).
(Formazan colour is commonly taken as a measure of viable cells.)

For experiment [2], the system named is elastin. The experiment in a line: Genic expression of elastin in fibroblasts (real time quantitative PCR). The conditions noted are these: 5 ng/mL, 48 hours. From the text: (§1) b. Study of the Effect of Quinoa Peptides on the Expression of Genes Coding for Collagen I and Collagen III and Elastin by RT-PCR
(§2) b.1. Principle of Real Time Quantitative PCR:
(§3) Real time quantitative PCR or QRT-PCR (Quantitative Real Time Polymerase Chain Reaction) is a molecular biology method, which allows specific and quantitative measurement of the expression of genes of interest by amplification. Quantification is based on tracking the amplification of genes in real time by using as a reporter system, SYBR Green technology: a molecule with fluorescent properties which is inserted inside the double strand DNA. PCR takes place in a succession of temperature cycles according to 3 steps: • Denaturation: separation of 2 DNA strands. • Hybridization: recognition of a DNA sequence corresponding to a target gene by means of specific primers. • Extension: of the sequence of interest by a action of a polymerase.
(§4) DNA amounts are compared in the exponential part, moment during which the increase in the DNA amount is proportional to the initial matrix amount.
(§5) On D0, the fibroblasts were sown on 6-well plates in RPMI medium added with 10% SVF. On D1, the fibroblasts were treated with TGF β1 at 5 ng/mL or the quinoa oil concentrate with 0.005% and 0.01% DM in RPMI medium with 1% SVF for 48 hours. At the end of the treatment of the cells, the total […] were extracted (extraction kit RNeasy kit MiniKit; Qiagen) and then assayed quantitatively in minichips by means of an Experion system (Experion RNA StdSens kit; Biorad). Total RNAs are then back-transcribed into cDNA (iScript cDNA Synthesis kit; Biorad). Finally the neo-synthesized cDNAs relative to the genes of interest (collagen I, collagen III, elastin) or to reference genes (HPRT, GAPDH, YWHAZ, beta actin=normalizers) were selectively amplified with real time PCR (iQ5, Biorad) by using specific primers of the target sequences.
(§6) The expression of the reference genes is analyzed in the same samples as those for which expression of the genes of interest is evaluated in order to normalize the results and to make sure that they are actually the results of the effect of the treatment by quinoa oil concentrate.
(§7) b.3. Analysis of the Results:
(§8) The variation in the number of copies of the genes of interest during the treatment is then calculated according to the following formula: DDCt=control DCt−treatment DCt.
(§9) Finally, the relative amount or the expression level of the genes of interest, normalized by the expression level of the reference genes in the untreated and treated samples is obtained by the formula: QR=2DDCt

Experiment [3] concerns γ-2 chain of laminin 5. In words: Genic expression of the γ-2 chain of laminin 5 in keratinocytes (RT-PCR). The conditions noted are these: 5 ng/ml, 48 hours. The procedure:
(§10) a. Study of the Effect of Quinoa Peptides on the Expression of Genes Coding for Laminin 5 and PPM-9 by RT-PCR • Principle of real time quantitative PCR: cf. Example 4 • Procedure:
(§11) On day 0, the keratinocytes were sown in 24-well plates in a KGM-2 medium. On D1, the cells were treated with TGFβ1 at 5 ng/mL or quinoa peptides with 0.05 and 0.1% DM for 48 hours. At the end of the treatment of the cells, the total RNAs were extracted (RNeasy MiniKit extraction kit; Qiagen) and then quantitatively assayed in minichips by means of the Experion system (Experion RNA StdSens kit; Biorad). The total RNAs were then backtranscribed into cDNA (iScript cDNA Synthesis kit; Biorad). Finally, the neo-synthesized cDNAs relative to the gene of interest (genes coding for the 3 chains making up laminin 5: […] and MMP-9) or to the reference genes (HPRT, GAPDH, YWHEZ, beta actin=normalizers) were selectively amplified by real time PCR (iQ5, Biorad) by using specific primers of the target sequences.

Experiment [4] relates to MMP-9. The experiment in a line: Dosage of MMP-9 protein secreted by keratinocytes (ELISA). Conditions: 5 ng/ml, supernatants of keratinocytes. The procedure:
d. Dosage of MMP-9 Secreted by Keratinocytes.
The keratinocytes were sown in 24-well plates; after 24 hours in incubation at 37° C., with 5% CO2, the cells were treated with quinoa peptides with 0.05% and 0.01% DM. TGFβ tested at 5 ng/mL was used as a positive control. After 48 and 72 hours of treatment, the amount of MMP-9 secreted by the cells was assayed in the culture supernatant by means of an ELISA kit (R&D Systems), according to the procedure recommended by the supplier. In parallel, the amount of living cells per well was determined by a colorimetric neutral red test: optical density OD, proportional to the amount of living cells, is read at 570 nm.
The amount of MMP-9 is expressed in living cells: (ng/mL)/OD570 (optical density at 570 nm) MTT.
A general note: An ELISA detects its analyte on a solid surface through an enzyme-linked reagent.

Experiment [5] deals with MMP-9. In words: Genic expression of MMP-9 in keratinocytes (RT-PCR). The conditions noted are these: 5 ng/ml, 48 hours. How it is done:
as §10, §11

The test system of experiment [6] is collagen III. The experiment in a line: Genic expression of collagen III in fibroblasts (real time quantitative PCR). Conditions: 5 ng/mL, 48 hours.
Text: as §1, §2, §3, §4, §5, §6, §7, §8, §9

The test system of experiment [7] is β-3 chain of laminin 5. The experiment in a line: Genic expression of the β-3 chain of laminin 5 in keratinocytes (RT-PCR). Conditions: 5 ng/ml, 48 hours. The procedure:
as §10, §11

Experiment [8] relates to α-3 chain of laminin 5. The experiment in a line: Genic expression of the α-3 chain of laminin 5 in keratinocytes (RT-PCR). Conditions: 5 ng/ml, 48 hours. The procedure: as §10, §11
The test system of experiment [9] is KGF. The experiment in a line: Dosage of KGF secreted by fibroblasts (ELISA). The conditions noted are these: for % A (increase) / Amount of KGF: 5 ng/ml, supernatants of fibroblasts. How it is done: e. Dosage of KGF Secreted by Fibroblasts
The fibroblasts were sown in a 24-well plate in RPMI at 1% SVF; after 24 hours of incubation at 37° C., with […], the cells were treated with quinoa peptides with 0.05% and 0.01% DM. IL1α (Sigma) at 100 ng/mL was used as a positive control. After 24 and 48 hours of treatment, the amount of KGF salted out by the fibroblasts was assayed with an ELISA kit (R&D Systems), according to the procedure recommended by the supplier. In parallel, the amount of living cells per well was determined by a colorimetric neutral red test: optical density OD, proportional to the amount of living cells, is read at 570 nm. In parallel, the amount of living cells per well was determined by an MTT colorimetric test: optical density OD, proportional to the amount of living cells, is read at 570 nm.
The amount of KGF is expressed by the living cells: pg/mL/OD570 MTT.

In experiment [10] the test system is collagen I. The experiment in a line: Genic expression of collagen I in fibroblasts (real time quantitative PCR). The conditions noted are these: 5 ng/mL, 48 hours.
Text: as §1, §2, §3, §4, §5, §6, §7, §8, §9

Turning to `CC1=C(/C=C/C(C)=C/C=C/C(C)=C/C(=O)O)C(C)(C)CCC1` [ATRA, trans-retinoic acid], the “Mean OD570 (MTT)” value in experiment [1] (1 μM) came out at 1.361. Besides, the “% of proliferation” value in [1] (1 μM, negative control = 100) was determined as 136%. In addition, in experiment [1] (positive control), the proliferation rate induced result is recorded as “+36%”.

In the case of “TGFβ: growth factor used as a positive control at 5 ng/mL”, the “% of induction” value in experiment [2] is reported as 435%; in experiment [3], 1676%; in experiment [5] it was 807%; in experiment [6], 427%; in experiment [7], 420%; in experiment [8], 1193%. Besides, the “% of induction” value in [10] was found to be 87%. Moreover, the QR is on record as 5.35 in experiment [2]; 17.76 in experiment [3]; approximately 17 in [3] (listed as TGF-β1); 8 in experiment [5]; 5.27 in experiment [6]; 5.20 in experiment [7]. The QR in experiment [7] (listed as TGF-β1) is given as approximately 5; in experiment [8], 12.93; in [8] (listed as TGF-β1), approximately 12; in [10] it was 1.87. For the same molecule, the dCt in experiment [2] worked out at 2.16. The ddCt in experiment [2] is recorded as 2.4; in experiment [3], 4.15; in experiment [5], 3.01; in experiment [6], 2.4; in experiment [7], 2.38; in experiment [8], 3.69. Further, the ddCt in experiment [10] was found to be 0.9. The “Mean dCt” value is on record as −1.925 in experiment [3]; 3.07 in experiment [5]; 2.51 in [6]; −0.944 in experiment [7]; −0.944 in [8]; −3.2 in [10]. The “% A (increase)” value in experiment [4] (treatment 48 h) is recorded as 372%; in experiment [4] (treatment 72 h), 568%; in experiment [9] (treatment 24 h) it was 431%; in experiment [9] (treatment 48 h), 336%. Moreover, the “Amount of MMP-9” value in experiment [4] (treatment 48 h) amounted to 11.604 ng/mL/OD neutral red; in experiment [4] (treatment 72 h), 14.746 ng/mL/OD neutral red. The “Amount of KGF” value in experiment [9] (treatment 24 h) was found to be 147.886 pg/mL/OD neutral red; in experiment [9] (treatment 48 h) it was 352.387 pg/mL/OD neutral red.

B1: IL1α: IL1α (Sigma) at 100 ng/mL used as a positive control (protein, UniProt P01583 113-271, looked up)
Interleukin-1 alpha: SAPFSFLSNVKYNFMRIIKYEFILNDALNQSIIRANDQYLTAAALHNLDEAVKFDMGAYKSSKDDAKITVILRISKTQLYVTAQDEDQPVLLKEMPEIPKTITGSETNLLFFWETHGTKNYFTSVAHPNLFIATKQDYWVCLAGGPPSITDFQILENQA
For the molecule B1, the “synthesis of KGF by fibroblasts” value in [9] (positive control, 100 ng/mL) is on record as “increased”.
